According to the supplement of paper PMC5908809:

Assays:
[1] = system: NKL (IL-2 2.5 ng/mL); assay: drug sensitivity score (DSS) (DSS units); higher = more sensitive; extreme values may be limits of the assay; conditions: 72 h
[2] = system: KAI3 (IL-2 2.5 ng/mL); assay: as above; conditions: 72 h
[3] = system: NK-92 (IL-2 2.5 ng/mL); assay: as above; conditions: 72 h
[4] = system: normal primary NK cells, pool 2 (3 donors) (IL-2 2.5 ng/mL); assay: as above; conditions: 72 h
[5] = system: DERL-7 (IL-2 2.5 ng/mL); assay: as above; conditions: 72 h
[6] = system: NK-YS (IL-2 2.5 ng/mL); assay: as above; conditions: 72 h
[7] = system: normal primary NK cells, pool 1 (3 donors), resting (IL-2 0 ng/mL); assay: as above; conditions: 72 h
[8] = system: KHYG-1 (IL-2 2.5 ng/mL); assay: as above; conditions: 72 h
[9] = system: normal primary NK cells, pool 3 (3 donors) (IL-2 2.5 ng/mL); assay: as above; conditions: 72 h
[10] = system: YT (IL-2 2.5 ng/mL); assay: as above; conditions: 72 h
[11] = system: normal primary NK cells, pool 1 (3 donors) (IL-2 2.5 ng/mL); assay: as above; conditions: 72 h
[12] = system: SNK-6 (IL-2 2.5 ng/mL); assay: as above; conditions: 72 h
[13] = system: IMC-1 (IL-2 20 ng/mL); assay: as above; conditions: 72 h
[14] = system: NKL (IL-2 2.5 ng/mL); assay: percent inhibition of viability; higher = more inhibition; conditions: 72 h
[15] = system: KAI3 (IL-2 2.5 ng/mL); assay: as above; conditions: 72 h
[16] = system: NK-92 (IL-2 2.5 ng/mL); assay: as above; conditions: 72 h
[17] = system: normal primary NK cells, pool 2 (3 donors) (IL-2 2.5 ng/mL); assay: as above; conditions: 72 h
[18] = system: DERL-7 (IL-2 2.5 ng/mL); assay: as above; conditions: 72 h
[19] = system: NK-YS (IL-2 2.5 ng/mL); assay: as above; conditions: 72 h
[20] = system: normal primary NK cells, pool 1 (3 donors), resting (IL-2 0 ng/mL); assay: as above; conditions: 72 h
[21] = system: KHYG-1 (IL-2 2.5 ng/mL); assay: as above; conditions: 72 h
[22] = system: normal primary NK cells, pool 3 (3 donors) (IL-2 2.5 ng/mL); assay: as above; conditions: 72 h
[23] = system: YT (IL-2 2.5 ng/mL); assay: as above; conditions: 72 h
[24] = system: normal primary NK cells, pool 1 (3 donors) (IL-2 2.5 ng/mL); assay: as above; conditions: 72 h
[25] = system: SNK-6 (IL-2 2.5 ng/mL); assay: as above; conditions: 72 h
[26] = system: IMC-1 (IL-2 20 ng/mL); assay: as above; conditions: 72 h
[27] = system: normal NK cells expanded with K562-aAPC; assay: drug sensitivity score (DSS) (DSS units); higher = more sensitive; extreme values may be limits of the assay; conditions: 72 h; IL-2 2.5 ng/mL
Description: (§1)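 Drug sensitivity and resistance testing on K562-aAPC-expanded normal NK cells: 5 concentrations (10-fold steps over a 10,000-fold range), 72 h at 37 °C, viability by CellTiter-Glo normalised to DMSO and benzethonium chloride controls; DSS from the fitted curve.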

[28] = system: normal NK cells expanded with K562-aAPC; assay: percent inhibition of viability; higher = more inhibition; conditions: 72 h, IL-2 2.5 ng/mL
Description: as §1

CC(C)Oc1cc(Nc2nc(N[C@@H](C)c3ccc(F)cn3)ncc2Cl)n[nH]1 [AZ-23] (max concentration tested 1000 nM)
Conditions | drug sensitivity score
[1] | 4.11
[2] | 2.21
[3] | 0
[4] | 7.86
[5] | 0.51
[6] | 0.85
[7] | 0
[8] | 0.25
[9] | 0
[10] | 0.01
[11] | 0
[12] | 3.55
[13] | 0
[27] | 2.75

percent inhibition of viability [%]
Conditions | 0.1 nM | 1 nM | 10 nM | 100 nM | 1000 nM
[14] | -5.13 | -8.13 | 11.5 | 13 | 49.2
[15] | 0.26 | -1.15 | 7.26 | 4.08 | 33.3
[16] | -8.37 | -0.57 | 6.98 | -18.1 | -10.1
[17] | -2.37 | -3.09 | -7.97 | 98.9 | 20
[18] | -2.19 | -3.08 | 4.42 | 0.42 | 18.3
[19] | -4.76 | 0.81 | 3.08 | 0.21 | 23.1
[20] | -13.2 | -3.44 | -0.59 | -21.9 | -26.6
[21] | -3.32 | 3.62 | 8.53 | 3.55 | 16.2
[22] | -9.03 | -10.1 | -13.7 | 0.83 | 6.87
[23] | -1.34 | 0.79 | 6.32 | -2.16 | 11.8
[24] | -2.92 | -1.19 | -3.79 | -5.46 | 7.88
[25] | -7.56 | 5.32 | 3.77 | 17.8 | 36.8
[26] | 1.36 | 2.7 | 8 | 5.82 | 6.35
[28] | 2.78 | -2.04 | 0.04 | 9.24 | 31.4
